This is an account of results in patent US20240398814A1, “KRAS INHIBITOR AND HDAC INHIBITOR COMBINATION FOR THE TREATMENT OF CANCER” (Northwestern University, priority 2023, published 2024).

One assay has as its system NF-kB/p65 protein. Description: Western blot of p65 nuclear localisation and K310 acetylation in KL LJE1 cells. It counts as cell-based, mouse. As to conditions: for quantity of p65 protein in the nuclear fraction: Western blot, 6 hr, 2 uM entinostat, 10uM RGFP966, 0.5 uM TSA. Here is the method: (§1) Protein lysates in CST buffer (20 mM Tris pH 7.5, 150 mM NaCl, 1% Triton X-100, 50 mM NaF, 1 mM EDTA, 1 mM EGTA, 2.5 mM PyroPhosphate, 2 mM beta-glycerol-phosphate, 1 mM orthovanadate, 0.01 mM Calyculan A) with protease inhibitors were equilibrated for protein levels using a BCA protein assay kit (Pierce), resolved on 8% SDS-PAGE gels, and transferred to membrane. Membranes were blocked in milk, incubated o/n at 4C in diluted primary antibody, washed with TBS-T, incubated 1 hr in secondary antibody diluted in TBS-T plus milk, washed in TBS-T, and developed using SuperSignal ECL. Secondary antibodies: anti-rabbit (Millipore AP132P) and anti-mouse (Millipore AP124P). Nuclear fractions were isolated using a NE-PER nuclear and cytoplasmic extraction kit (Thermofisher) under manufacturers conditions.
p65-expressing DNA constructs RelA-Flag (22) (Addgene 20012) and GFP-RelA (21) (Addgene 23255) were transiently transfected into KL LJE1 cells using Lipofectamine 2000 (Thermo Fisher Scientific) according to the manufacturer's protocol. Cells were treated with drug as indicated 24 hours after transfection.
For orientation: In western blotting, separated proteins are transferred to a membrane and probed.

Another assay deals with A549 cells. Description: qRT-PCR of chemokine gene expression in A549 cells. It counts as cell-based, human. The conditions noted are these: 2 uM entinostat 3 days, 5 uM BRD3308 4 days. Here is the method: (§2) All cell lines were incubated at 37° C. and were maintained in an atmosphere containing 5% CO2. Cells were tested for Mycoplasma (Lonza) using manufacturer's conditions and were deemed negative. Cells were grown in Dulbecco's modified Eagles medium (DMEM) plus 10% fetal bovine serum (Gibco) and were continuously maintained under antibiotic selection for stable cell lines. Proliferation assays were performed by plating 2×10^3 cells per well of a 6-well plate, and cells were counted 5 days post-plating. Drug treatments were carried out using the following doses: entinostat 1 uM or 2 uM, RGFP966 10uM, TSA 0.5 uM, BRD3308 5 uM, trametinib 5 nM, 10 nM, and 25 nM, and MRTX1133 10 nM, 25 nM, and 50 nM, as indicated for the indicated treatment lengths. Media was changed and fresh drug added every 2 days.
(§3) mRNA was prepared using the Quick-RNA Miniprep kit (Zymo Research), including DNase treatment. cDNA was synthesized from 2 μg of RNA using SuperScript III (Life Technologies), and qPCR was carried out with diluted cDNA, appropriate primers, and SYBR Green PCR master mix (ThermoFisher Scientific) using a C1000 Thermal Cycler (BioRad). Relative mRNA levels were calculated using the delta Ct method, using Tbp as an internal control.

The subject of assay [1] is KL LJE1 cells. Put plainly: qRT-PCR of chemokine (HRCG) gene expression in KL LJE1 cells. It counts as cell-based, mouse. Here is the method: as §2, §3
(In general: Real-time PCR tracks product formation cycle by cycle.)

The test system of the next assay is H460 cells. Description: qRT-PCR of chemokine gene expression in H460 cells. It counts as cell-based, human. The conditions noted are these: 1 uM entinostat 4 days, 5 uM BRD3308 4 days. On the procedure: as §2, §3
The subject of assay [2] is KL LJE1 cells. Description: Western blot and qRT-PCR of FGFR1, NKX2-1 and ERK phosphorylation in drug-treated KL LJE1 cells. It counts as cell-based, mouse. Here is the method: as §2, §3, §1
The subject of the next assay is human lung cancer cells. Description: FGFR1 resistance mechanism in human lung cancer cells. Format: cell-based. As to conditions: 6 days of treatment.
Assay [3] concerns KL LJE1 cells. Description: RNA-seq of drug-treated KL LJE1 cells (TIER genes). As to conditions: adj. p-value<0.05, 10 nM trametinib. It counts as cell-based, mouse. Here is the method: All cell lines were incubated at 37° C. and were maintained in an atmosphere containing 5% CO2. Cells were tested for Mycoplasma (Lonza) using manufacturer's conditions and were deemed negative. Cells were grown in Dulbecco's modified Eagles medium (DMEM) plus 10% fetal bovine serum (Gibco) and were continuously maintained under antibiotic selection for stable cell lines. Proliferation assays were performed by plating 2×10^3 cells per well of a 6-well plate, and cells were counted 5 days post-plating. […]
mRNA was collected from cells harvested within 2 passages post-thaw. mRNA was isolated using the Quick-RNA Miniprep kit (Zymo Research), including DNase treatment. RNA integrity (RIN) numbers were determined using the Agilent TapeStation prior to library preparation. mRNA-seq libraries were prepared using the TruSeq RNA library preparation kit (version 2), according to the manufacturer's instructions (Illumina). Libraries were quantified, pooled, and sequenced by single-end 50 base pairs using the Illumina HiSeq 2500 platform at the Salk Next-Generation Sequencing Core. […]
Sequenced reads were quality-tested using the online FASTQC tool (bioinformatics.babraham.ac.uk/projects/fastqc) and aligned to the mouse mm10 genome using the STAR aligner version 2.4.0k (Ref. 81; incorporated by reference in its entirety). […]

[4] abbreviates: HDAC3 KO cells, 5 days, MRTX1133 10, 25, or 50 nM, trametinib 5, 10, or 25 nM.

In the case of `CC(=O)Nc1ccc(C(=O)Nc2ccc(F)cc2N)cc1` [BRD3308], the “acetylation of wildtype p65 at K310 (versus K310A mutant)” value in the assay with NF-kB/p65 protein (5 hours, 1 uM entinostat or 5 uM BRD3308) is “induce acetylation of wildtype p65 at K310”. The “chemokine (SASP) gene expression” value with A549 cells and in the assay on H460 cells was “induced the expression of these genes” each time. Moreover, in the assay with KL LJE1 cells [1] (3 days, 1 uM entinostat or 5 uM BRD3308), the “gene expression induction in NT versus p65 KO cells” value is “p65 facilitates maximal gene expression induction”.
As for `C#Cc1c(F)ccc2cc(O)cc(-c3ncc4c(N5CC6CCC(C5)N6)nc(OC[C@@]56CCCN5C[C@H](F)C6)nc4c3F)c12` [MRTX1133], the FGFR1 resistance mechanism result in the assay with KL LJE1 cells [2] (1 day of treatment) is “induces the FGFR1 resistance mechanism in an HDAC3-dependent manner”; in the assay on KL LJE1 cells [2] (5 days of treatment), “induces the FGFR1 resistance mechanism in an HDAC3-dependent manner”; in the assay with human lung cancer cells it was “induces the FGFR1 resistance mechanism”. For the same compound, in the assay on KL LJE1 cells [2] (Western blot, 24 hr, 10 nM, 25 nM or 50 nM MRTX1133), the “ERK phosphorylation at Thr202/Tyr204” value was “on-target Kras inhibition”. Further, the “HRCG expression, drug alone (NT cells)” value with KL LJE1 cells [1] (5 days, MRTX1133 10, 25, or 50 nM) was “did not impact the expression of these genes”. Also, in the assay on KL LJE1 cells [1] (setting [4]), the “HDAC3 KO-dependent induction of immunosuppressive HRCGs (Cxc15, Cxc1, Cxc12, Cxc13)” value is “reversed the HDAC3-dependent induction”. For the same compound, the “HDAC3 KO-dependent induction of immunosurveillance-related HRCGs (Cc15, Cxc110)” value with KL LJE1 cells [1] (setting [4]) is recorded as “expression was maintained in the presence of MRTX1133”.
On to `Nc1cc(F)ccc1NC(=O)/C=C/c1cnn(C/C=C/c2ccccc2)c1` [RGFP966], for which the “quantity of p65 protein in the nuclear fraction” value in the assay with NF-kB/p65 protein is recorded as “increased the quantity of p65 protein in the nuclear fraction”. Further, the “chemokine (SASP) gene expression” value with KL LJE1 cells [1] (72 hr, 2 uM entinostat or 10uM RGFP966) is listed as “robust induction of gene expression”.
As to `CC(/C=C/C(=O)NO)=C\[C@@H](C)C(=O)c1ccc(N(C)C)cc1` [TSA, trichostatin a], the “quantity of p65 protein in the nuclear fraction” value with NF-kB/p65 protein was “increased the quantity of p65 protein in the nuclear fraction”.
As for `CC(=O)Nc1cccc(-n2c(=O)n(C3CC3)c(=O)c3c(Nc4ccc(I)cc4F)n(C)c(=O)c(C)c32)c1` [trametinib], the “genes upregulated upon 13 day trametinib compared to vehicle” value in the assay with KL LJE1 cells [3] is 2,141 genes.
